Tested on: RPMI-8866
Test: cells
Format: functional, cell-based, Homo sapiens
Details: Homo sapiens, RPMI-8866
Description: SANGER: Inhibition of human RPMI-8866 cell growth in a cell viability assay.

Row | SMILES | IC50 [µM]
1 | O=S(=O)(O)c1ccc2cc(/N=N/c3cc(S(=O)(=O)O)c4cccnc4c3O)ccc2c1 | > 16

Tested on: ACN;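 note: growth inhibition of the human ACN cell line, read out via cell viability testing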
Test: cells
Format: functional, cell-based, Homo sapiens
Details: Homo sapiens, ACN
Description: SANGER: Inhibition of human ACN cell growth in a cell viability assay.

Row | SMILES | IC50 [µM]
2 | O=S(=O)(O)c1ccc2cc(/N=N/c3cc(S(=O)(=O)O)c4cccnc4c3O)ccc2c1 | > 16

Tested on: NCI-H1650;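 note: growth inhibition of human NCI-H1650 cells measured by a cell viability assay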
Test: cells
Format: functional, cell-based, Homo sapiens
Details: Homo sapiens, NCI-H1650
Description: SANGER: Inhibition of human NCI-H1650 cell growth in a cell viability assay.

Row | SMILES | IC50 [µM]
3 | O=S(=O)(O)c1ccc2cc(/N=N/c3cc(S(=O)(=O)O)c4cccnc4c3O)ccc2c1 | > 16

Tested on: IA-LM;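 note: cell viability assay measuring growth inhibition of human IA-LM cells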
Test: cells
Format: functional, cell-based
Details: Homo sapiens
Description: SANGER: Inhibition of human IA-LM cell growth in a cell viability assay.

Row | SMILES | IC50 [µM]
4 | O=S(=O)(O)c1ccc2cc(/N=N/c3cc(S(=O)(=O)O)c4cccnc4c3O)ccc2c1 | > 16

Tested on: NCI-H720;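 note: growth inhibition of human NCI-H720 cells determined by a cell viability assay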
Test: cells
Format: functional, cell-based, Homo sapiens
Details: Homo sapiens, NCI-H720
Description: SANGER: Inhibition of human NCI-H720 cell growth in a cell viability assay.

Row | SMILES | IC50 [µM]
5 | O=S(=O)(O)c1ccc2cc(/N=N/c3cc(S(=O)(=O)O)c4cccnc4c3O)ccc2c1 | > 16

Tested on: DOHH-2;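 note: growth inhibition of human DOHH-2 cells, read out with a cell viability assay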
Test: cells
Format: functional, cell-based, Homo sapiens
Details: Homo sapiens, DOHH-2
Description: SANGER: Inhibition of human DOHH-2 cell growth in a cell viability assay.

Row | SMILES | IC50 [µM]
6 | O=S(=O)(O)c1ccc2cc(/N=N/c3cc(S(=O)(=O)O)c4cccnc4c3O)ccc2c1 | > 16

Tested on: 697
Test: cells
Format: functional, cell-based, Homo sapiens
Details: Homo sapiens
Description: SANGER: Inhibition of human 697 cell growth in a cell viability assay.

Row | SMILES | IC50 [µM]
7 | O=S(=O)(O)c1ccc2cc(/N=N/c3cc(S(=O)(=O)O)c4cccnc4c3O)ccc2c1 | > 16

Tested on: MZ7-mel;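 note: growth inhibition of human MZ7-mel cells, measured by a cell viability assay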
Test: cells
Format: functional, cell-based, Homo sapiens
Details: Homo sapiens, MZ7-mel
Description: SANGER: Inhibition of human MZ7-mel cell growth in a cell viability assay.

Row | SMILES | IC50 [µM]
8 | O=S(=O)(O)c1ccc2cc(/N=N/c3cc(S(=O)(=O)O)c4cccnc4c3O)ccc2c1 | > 16

Tested on: NCI-H226;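 note: cell viability read-out used to gauge growth inhibition of the cells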
Test: cells
Format: functional, cell-based, Homo sapiens
Details: Homo sapiens, NCI-H226
Description: SANGER: Inhibition of human NCI-H226 cell growth in a cell viability assay.

Row | SMILES | IC50 [µM]
9 | O=S(=O)(O)c1ccc2cc(/N=N/c3cc(S(=O)(=O)O)c4cccnc4c3O)ccc2c1 | > 16

Tested on: 8-MG-BA;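 note: growth inhibition of 8-MG-BA cells, read out with a cell viability assay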
Test: cells
Format: functional, cell-based, Homo sapiens
Details: Homo sapiens, 8-MG-BA
Description: SANGER: Inhibition of human 8-MG-BA cell growth in a cell viability assay.

Row | SMILES | IC50 [µM]
10 | O=S(=O)(O)c1ccc2cc(/N=N/c3cc(S(=O)(=O)O)c4cccnc4c3O)ccc2c1 | > 16

Tested on: Mo
Test: cells
Format: functional, cell-based, Homo sapiens
Details: Homo sapiens, Mo
Description: SANGER: Inhibition of human Mo-T cell growth in a cell viability assay.

Row | SMILES | IC50 [µM]
11 | O=S(=O)(O)c1ccc2cc(/N=N/c3cc(S(=O)(=O)O)c4cccnc4c3O)ccc2c1 | > 16

Tested on: NCI-N87;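 note: growth inhibition of human NCI-N87 cells, read out with a cell viability assay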
Test: cells
Format: functional, cell-based
Details: Homo sapiens
Description: SANGER: Inhibition of human NCI-N87 cell growth in a cell viability assay.

Row | SMILES | IC50 [µM]
12 | O=S(=O)(O)c1ccc2cc(/N=N/c3cc(S(=O)(=O)O)c4cccnc4c3O)ccc2c1 | > 16

Tested on: NH-12;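 note: growth inhibition of NH-12 cells, read out with a cell viability assay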
Test: cells
Format: functional, cell-based, Homo sapiens
Details: Homo sapiens, NH-12
Description: SANGER: Inhibition of human NH-12 cell growth in a cell viability assay.

Row | SMILES | IC50 [µM]
13 | O=S(=O)(O)c1ccc2cc(/N=N/c3cc(S(=O)(=O)O)c4cccnc4c3O)ccc2c1 | > 16

Tested on: DoTc2-4510
Test: cells
Format: functional, cell-based
Details: Homo sapiens

Row | SMILES | IC50 [µM]
14 | O=S(=O)(O)c1ccc2cc(/N=N/c3cc(S(=O)(=O)O)c4cccnc4c3O)ccc2c1 | > 16

Tested on: no-10;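 note: growth inhibition of no-10 cells, read out with a cell viability assay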
Test: cells
Format: functional, cell-based, Homo sapiens
Details: Homo sapiens
Description: SANGER: Inhibition of human no-10 cell growth in a cell viability assay.

Row | SMILES | IC50 [µM]
15 | O=S(=O)(O)c1ccc2cc(/N=N/c3cc(S(=O)(=O)O)c4cccnc4c3O)ccc2c1 | > 16

Tested on: ONS-76;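 note: growth inhibition of human ONS-76 cells, read out with a cell viability assay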
Test: cells
Format: functional, cell-based, Homo sapiens
Details: Homo sapiens, ONS-76
Description: SANGER: Inhibition of human ONS-76 cell growth in a cell viability assay.

Row | SMILES | IC50 [µM]
16 | O=S(=O)(O)c1ccc2cc(/N=N/c3cc(S(=O)(=O)O)c4cccnc4c3O)ccc2c1 | > 16

Tested on: A498;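 note: growth inhibition of human A498 cells, read out with a cell viability assay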
Test: cells
Format: functional, cell-based, Homo sapiens
Details: Homo sapiens, A498
Description: SANGER: Inhibition of human A498 cell growth in a cell viability assay.

Row | SMILES | IC50 [µM]
17 | O=S(=O)(O)c1ccc2cc(/N=N/c3cc(S(=O)(=O)O)c4cccnc4c3O)ccc2c1 | > 16

Tested on: OS-RC-2;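 note: growth inhibition of human OS-RC-2 cells, measured by a cell viability assay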
Test: cells
Format: functional, cell-based, Homo sapiens
Details: Homo sapiens, OS-RC-2
Description: SANGER: Inhibition of human OS-RC-2 cell growth in a cell viability assay.

Row | SMILES | IC50 [µM]
18 | O=S(=O)(O)c1ccc2cc(/N=N/c3cc(S(=O)(=O)O)c4cccnc4c3O)ccc2c1 | > 16

Tested on: BB30-HNC;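 note: growth inhibition of the cultured cell line, read out by a cell viability assay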
Test: cells
Format: functional, cell-based, Homo sapiens
Details: Homo sapiens, BB30-HNC
Description: SANGER: Inhibition of human BB30-HNC cell growth in a cell viability assay.

Row | SMILES | IC50 [µM]
19 | O=S(=O)(O)c1ccc2cc(/N=N/c3cc(S(=O)(=O)O)c4cccnc4c3O)ccc2c1 | > 16

Tested on: SK-UT-1;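 note: growth inhibition of SK-UT-1 cells, measured by a cell viability assay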
Test: cells
Format: functional, cell-based, Homo sapiens
Details: Homo sapiens, SK-UT-1
Description: SANGER: Inhibition of human SK-UT-1 cell growth in a cell viability assay.

Row | SMILES | IC50 [µM]
20 | O=S(=O)(O)c1ccc2cc(/N=N/c3cc(S(=O)(=O)O)c4cccnc4c3O)ccc2c1 | > 16

Tested on: IST-SL1;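 note: growth inhibition of human IST-SL1 cells, read out with a cell viability assay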
Test: cells
Format: functional, cell-based, Homo sapiens
Details: Homo sapiens, IST-SL1
Description: SANGER: Inhibition of human IST-SL1 cell growth in a cell viability assay.

Row | SMILES | IC50 [µM]
21 | O=S(=O)(O)c1ccc2cc(/N=N/c3cc(S(=O)(=O)O)c4cccnc4c3O)ccc2c1 | > 16

Tested on: KURAMOCHI;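 note: growth inhibition of KURAMOCHI cells, read out with a cell viability assay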
Test: cells
Format: functional, cell-based, Homo sapiens
Details: Homo sapiens, KURAMOCHI
Description: SANGER: Inhibition of human KURAMOCHI cell growth in a cell viability assay.

Row | SMILES | IC50 [µM]
22 | O=S(=O)(O)c1ccc2cc(/N=N/c3cc(S(=O)(=O)O)c4cccnc4c3O)ccc2c1 | > 16

Tested on: LS-513
Test: cells
Format: functional, cell-based, Homo sapiens
Details: Homo sapiens, LS-513
Description: SANGER: Inhibition of human LS-513 cell growth in a cell viability assay.

Row | SMILES | IC50 [µM]
23 | O=S(=O)(O)c1ccc2cc(/N=N/c3cc(S(=O)(=O)O)c4cccnc4c3O)ccc2c1 | > 16

Tested on: HD-MY-Z;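 note: growth inhibition of HD-MY-Z cells, read out with a cell viability assay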
Test: cells
Format: functional, cell-based, Homo sapiens
Details: Homo sapiens, HD-MY-Z
Description: SANGER: Inhibition of human HD-MY-Z cell growth in a cell viability assay.

Row | SMILES | IC50 [µM]
24 | O=S(=O)(O)c1ccc2cc(/N=N/c3cc(S(=O)(=O)O)c4cccnc4c3O)ccc2c1 | > 16

Tested on: LAMA-84;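 note: growth inhibition of LAMA-84 cells, read out with a cell viability assay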
Test: cells
Format: functional, cell-based, Homo sapiens
Details: Homo sapiens, LAMA-84
Description: SANGER: Inhibition of human LAMA-84 cell growth in a cell viability assay.

Row | SMILES | IC50 [µM]
25 | O=S(=O)(O)c1ccc2cc(/N=N/c3cc(S(=O)(=O)O)c4cccnc4c3O)ccc2c1 | > 16

Tested on: MV4-11;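 note: cell viability readout measuring growth inhibition of human MV-4-11 cells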
Test: cells
Format: functional, cell-based, Homo sapiens, MV-4-11
Details: Homo sapiens, MV4-11
Description: SANGER: Inhibition of human MV-4-11 cell growth in a cell viability assay.

Row | SMILES | IC50 [µM]
26 | O=S(=O)(O)c1ccc2cc(/N=N/c3cc(S(=O)(=O)O)c4cccnc4c3O)ccc2c1 | > 16

Tested on: JAR;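 note: growth inhibition of human JAR cells determined with a cell viability assay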
Test: cells
Format: functional, cell-based, Homo sapiens
Details: Homo sapiens, JAR
Description: SANGER: Inhibition of human JAR cell growth in a cell viability assay.

Row | SMILES | IC50 [µM]
27 | O=S(=O)(O)c1ccc2cc(/N=N/c3cc(S(=O)(=O)O)c4cccnc4c3O)ccc2c1 | > 16

Tested on: NCI-H1155;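 note: cell growth inhibition measured by a viability assay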
Test: cells
Format: functional, cell-based, Homo sapiens
Details: Homo sapiens, NCI-H1155
Description: SANGER: Inhibition of human NCI-H1155 cell growth in a cell viability assay.

Row | SMILES | IC50 [µM]
28 | O=S(=O)(O)c1ccc2cc(/N=N/c3cc(S(=O)(=O)O)c4cccnc4c3O)ccc2c1 | > 16

Tested on: JVM-2;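 note: growth inhibition of JVM-2 cells determined by a cell viability assay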
Test: cells
Format: functional, cell-based, Homo sapiens
Details: Homo sapiens, JVM-2
Description: SANGER: Inhibition of human JVM-2 cell growth in a cell viability assay.

Row | SMILES | IC50 [µM]
29 | O=S(=O)(O)c1ccc2cc(/N=N/c3cc(S(=O)(=O)O)c4cccnc4c3O)ccc2c1 | > 16

Tested on: MONO-MAC-6;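 note: cell viability assay measuring growth inhibition of human MONO-MAC-6 cells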
Test: cells
Format: functional, cell-based, Homo sapiens
Details: Homo sapiens, MONO-MAC-6
Description: SANGER: Inhibition of human MONO-MAC-6 cell growth in a cell viability assay.

Row | SMILES | IC50 [µM]
30 | O=S(=O)(O)c1ccc2cc(/N=N/c3cc(S(=O)(=O)O)c4cccnc4c3O)ccc2c1 | > 16

Tested on: ES4;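 note: growth inhibition of human ES4 cells, read out by a cell viability assay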
Test: cells
Format: functional, cell-based, Homo sapiens
Details: Homo sapiens, ES4
Description: SANGER: Inhibition of human ES4 cell growth in a cell viability assay.

Row | SMILES | IC50 [µM]
31 | O=S(=O)(O)c1ccc2cc(/N=N/c3cc(S(=O)(=O)O)c4cccnc4c3O)ccc2c1 | > 16

Tested on: HCC2157;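 note: growth inhibition of the cancer cell line, read out as cell viability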
Test: cells
Format: functional, cell-based, Homo sapiens
Details: Homo sapiens, HCC2157
Description: SANGER: Inhibition of human HCC2157 cell growth in a cell viability assay.

Row | SMILES | IC50 [µM]
32 | O=S(=O)(O)c1ccc2cc(/N=N/c3cc(S(=O)(=O)O)c4cccnc4c3O)ccc2c1 | > 16

Tested on: L-363
Test: cells
Format: functional, cell-based, Homo sapiens
Details: Homo sapiens, L-363
Description: SANGER: Inhibition of human L-363 cell growth in a cell viability assay.

Row | SMILES | IC50 [µM]
33 | O=S(=O)(O)c1ccc2cc(/N=N/c3cc(S(=O)(=O)O)c4cccnc4c3O)ccc2c1 | > 16

Tested on: SBC-1;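 note: cell viability assay measuring growth inhibition of the SBC-1 cell line, IC50 being the concentration that halves growth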
Test: cells
Format: functional, cell-based, Homo sapiens
Details: Homo sapiens, SBC-1
Description: SANGER: Inhibition of human SBC-1 cell growth in a cell viability assay.

Row | SMILES | IC50 [µM]
34 | O=S(=O)(O)c1ccc2cc(/N=N/c3cc(S(=O)(=O)O)c4cccnc4c3O)ccc2c1 | > 16

Tested on: C8166;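 note: growth inhibition of human C8166 cells measured by a cell viability assay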
Test: cells
Format: functional, cell-based, Homo sapiens
Details: Homo sapiens, C8166
Description: SANGER: Inhibition of human C8166 cell growth in a cell viability assay.

Row | SMILES | IC50 [µM]
35 | O=S(=O)(O)c1ccc2cc(/N=N/c3cc(S(=O)(=O)O)c4cccnc4c3O)ccc2c1 | > 16

Tested on: LB2241-RCC;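 note: cell viability assay measuring how strongly the cultured human renal carcinoma line is prevented from growing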
Test: cells
Format: functional, cell-based, Homo sapiens
Details: Homo sapiens, LB2241-RCC
Description: SANGER: Inhibition of human LB2241-RCC cell growth in a cell viability assay.

Row | SMILES | IC50 [µM]
36 | O=S(=O)(O)c1ccc2cc(/N=N/c3cc(S(=O)(=O)O)c4cccnc4c3O)ccc2c1 | > 16

Tested on: HCE-T;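 note: cell viability assay read-out, reporting inhibition of HCE-T cell growth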
Test: cells
Format: functional, cell-based, Homo sapiens
Details: Homo sapiens, HCE-T
Description: SANGER: Inhibition of human HCE-T cell growth in a cell viability assay.

Row | SMILES | IC50 [µM]
37 | O=S(=O)(O)c1ccc2cc(/N=N/c3cc(S(=O)(=O)O)c4cccnc4c3O)ccc2c1 | > 16

Tested on: SNU-5;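 note: cell viability readout used to measure growth inhibition in human NCI-SNU-5 cells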
Test: cells
Format: functional, cell-based, Homo sapiens
Details: Homo sapiens, SNU-5
Description: SANGER: Inhibition of human NCI-SNU-5 cell growth in a cell viability assay.

Row | SMILES | IC50 [µM]
38 | O=S(=O)(O)c1ccc2cc(/N=N/c3cc(S(=O)(=O)O)c4cccnc4c3O)ccc2c1 | > 16

Tested on: IST-MES1;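 note: growth inhibition of IST-MES1 cells, measured with a cell viability assay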
Test: cells
Format: functional, cell-based, Homo sapiens
Details: Homo sapiens, IST-MES1
Description: SANGER: Inhibition of human IST-MES1 cell growth in a cell viability assay.

Row | SMILES | IC50 [µM]
39 | O=S(=O)(O)c1ccc2cc(/N=N/c3cc(S(=O)(=O)O)c4cccnc4c3O)ccc2c1 | > 16

Tested on: NCI-H23;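 note: cell viability assay measuring growth inhibition of NCI-H23 cells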
Test: cells
Format: functional, cell-based, Homo sapiens
Details: Homo sapiens, NCI-H23
Description: SANGER: Inhibition of human NCI-H23 cell growth in a cell viability assay.

Row | SMILES | IC50 [µM]
40 | O=S(=O)(O)c1ccc2cc(/N=N/c3cc(S(=O)(=O)O)c4cccnc4c3O)ccc2c1 | > 16

Tested on: SK-PN-DW;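 note: growth inhibition measured with a viability assay on these cells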
Test: cells
Format: functional, cell-based, Homo sapiens
Details: Homo sapiens, SK-PN-DW
Description: SANGER: Inhibition of human SK-PN-DW cell growth in a cell viability assay.

Row | SMILES | IC50 [µM]
41 | O=S(=O)(O)c1ccc2cc(/N=N/c3cc(S(=O)(=O)O)c4cccnc4c3O)ccc2c1 | > 16

Tested on: KM-H2;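 note: growth inhibition of KM-H2 cells, read out by a cell viability assay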
Test: cells
Format: functional, cell-based, Homo sapiens
Details: Homo sapiens, KM-H2
Description: SANGER: Inhibition of human KM-H2 cell growth in a cell viability assay.

Row | SMILES | IC50 [µM]
42 | O=S(=O)(O)c1ccc2cc(/N=N/c3cc(S(=O)(=O)O)c4cccnc4c3O)ccc2c1 | > 16

Tested on: SCC-15;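 note: growth inhibition of SCC-15 cells, read out with a cell viability assay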
Test: cells
Format: functional, cell-based, Homo sapiens
Details: Homo sapiens, SCC-15
Description: SANGER: Inhibition of human SCC-15 cell growth in a cell viability assay.

Row | SMILES | IC50 [µM]
43 | O=S(=O)(O)c1ccc2cc(/N=N/c3cc(S(=O)(=O)O)c4cccnc4c3O)ccc2c1 | > 16

Tested on: LOX IMVI
Test: cells
Format: functional, cell-based, Homo sapiens
Details: Homo sapiens, LOX IMVI
Description: SANGER: Inhibition of human LOXIMVI cell growth in a cell viability assay.

Row | SMILES | IC50 [µM]
44 | O=S(=O)(O)c1ccc2cc(/N=N/c3cc(S(=O)(=O)O)c4cccnc4c3O)ccc2c1 | > 16

Tested on: MHH-PREB-1;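 note: cell viability assay measuring inhibition of proliferation of human MHH-PREB-1 cells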
Test: cells
Format: functional, cell-based, Homo sapiens
Details: Homo sapiens, MHH-PREB-1
Description: SANGER: Inhibition of human MHH-PREB-1 cell growth in a cell viability assay.

Row | SMILES | IC50 [µM]
45 | O=S(=O)(O)c1ccc2cc(/N=N/c3cc(S(=O)(=O)O)c4cccnc4c3O)ccc2c1 | > 16

Tested on: CCRF-CEM;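 note: inhibition of CCRF-CEM cell growth, measured by a cell viability assay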
Test: cells
Format: functional, cell-based, Homo sapiens
Details: Homo sapiens, CCRF-CEM
Description: SANGER: Inhibition of human CCRF-CEM cell growth in a cell viability assay.

Row | SMILES | IC50 [µM]
46 | O=S(=O)(O)c1ccc2cc(/N=N/c3cc(S(=O)(=O)O)c4cccnc4c3O)ccc2c1 | > 16

Tested on: HH
Test: cells
Format: functional, cell-based, Homo sapiens
Details: Homo sapiens, HH
Description: SANGER: Inhibition of human HH cell growth in a cell viability assay.

Row | SMILES | IC50 [µM]
47 | O=S(=O)(O)c1ccc2cc(/N=N/c3cc(S(=O)(=O)O)c4cccnc4c3O)ccc2c1 | > 16

Tested on: DU-4475
Test: cells
Format: functional, cell-based, Homo sapiens
Details: Homo sapiens, DU-4475
Description: SANGER: Inhibition of human DU-4475 cell growth in a cell viability assay.

Row | SMILES | IC50 [µM]
48 | O=S(=O)(O)c1ccc2cc(/N=N/c3cc(S(=O)(=O)O)c4cccnc4c3O)ccc2c1 | > 16

Tested on: SK-N-FI;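 note: cell viability assay measuring growth inhibition of human SK-N-FI cells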
Test: cells
Format: functional, cell-based, Homo sapiens
Details: Homo sapiens, SK-N-FI
Description: SANGER: Inhibition of human SK-N-FI cell growth in a cell viability assay.

Row | SMILES | IC50 [µM]
49 | O=S(=O)(O)c1ccc2cc(/N=N/c3cc(S(=O)(=O)O)c4cccnc4c3O)ccc2c1 | > 16

Tested on: NCI-H1299;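 note: growth inhibition of human NCI-H1299 cells, read out by a cell viability assay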
Test: cells
Format: functional, cell-based
Details: Homo sapiens
Description: SANGER: Inhibition of human NCI-H1299 cell growth in a cell viability assay.

Row | SMILES | IC50 [µM]
50 | O=S(=O)(O)c1ccc2cc(/N=N/c3cc(S(=O)(=O)O)c4cccnc4c3O)ccc2c1 | > 16

Reference: ChEMBL document CHEMBL1201861, “Genomics of Drug Sensitity in Cancer screening data, Wellcome Trust Sanger Institute”
